In patent US10670605B2, “Cysteine reactive probes and uses thereof” (The Scripps Research Institute, priority 2015, dated 2020):

Experiments:
Assay in all cases: Competitive isoTOP-ABPP in situ (fragment-treated cells)
Format in all cases: cell-based
[1] = molecular target: cysteines in MDA-MB-231 and Ramos cells (Homo sapiens, UniProt Q96EY5)
[2] = molecular target: T1, cysteines in MDA-MB-231 and Ramos cells (Homo sapiens, UniProt P51649)
T1 sequence (P51649 48-535): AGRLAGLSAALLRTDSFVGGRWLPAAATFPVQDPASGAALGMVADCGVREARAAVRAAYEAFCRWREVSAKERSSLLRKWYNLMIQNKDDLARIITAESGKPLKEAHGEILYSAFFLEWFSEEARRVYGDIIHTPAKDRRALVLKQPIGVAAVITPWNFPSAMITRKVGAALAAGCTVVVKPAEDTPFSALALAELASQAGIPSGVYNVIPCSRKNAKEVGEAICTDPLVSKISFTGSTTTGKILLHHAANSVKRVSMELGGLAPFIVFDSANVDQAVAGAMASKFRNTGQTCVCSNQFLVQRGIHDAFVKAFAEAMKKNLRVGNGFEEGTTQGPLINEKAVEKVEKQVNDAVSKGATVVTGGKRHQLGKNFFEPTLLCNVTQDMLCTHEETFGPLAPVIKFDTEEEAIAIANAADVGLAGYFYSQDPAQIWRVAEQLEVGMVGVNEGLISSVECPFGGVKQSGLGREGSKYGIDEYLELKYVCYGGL

[3] = molecular target: cysteines in MDA-MB-231 and Ramos cells (Homo sapiens, UniProt Q9BRJ7)
Sequence of cysteines in MDA-MB-231 and Ramos cells (Homo sapiens, UniProt Q9BRJ7) (Q9BRJ7 whole entry): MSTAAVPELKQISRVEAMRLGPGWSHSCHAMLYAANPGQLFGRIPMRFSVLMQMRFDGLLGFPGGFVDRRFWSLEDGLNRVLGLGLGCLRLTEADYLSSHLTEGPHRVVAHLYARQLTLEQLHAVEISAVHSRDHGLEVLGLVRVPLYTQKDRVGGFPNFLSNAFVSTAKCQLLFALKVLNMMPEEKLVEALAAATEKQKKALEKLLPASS

[4] = molecular target: cysteines in MDA-MB-231 and Ramos cells (Homo sapiens, UniProt P27708); details: 200 μM, insitu
Sequence of cysteines in MDA-MB-231 and Ramos cells (Homo sapiens, UniProt P27708) (P27708 whole entry): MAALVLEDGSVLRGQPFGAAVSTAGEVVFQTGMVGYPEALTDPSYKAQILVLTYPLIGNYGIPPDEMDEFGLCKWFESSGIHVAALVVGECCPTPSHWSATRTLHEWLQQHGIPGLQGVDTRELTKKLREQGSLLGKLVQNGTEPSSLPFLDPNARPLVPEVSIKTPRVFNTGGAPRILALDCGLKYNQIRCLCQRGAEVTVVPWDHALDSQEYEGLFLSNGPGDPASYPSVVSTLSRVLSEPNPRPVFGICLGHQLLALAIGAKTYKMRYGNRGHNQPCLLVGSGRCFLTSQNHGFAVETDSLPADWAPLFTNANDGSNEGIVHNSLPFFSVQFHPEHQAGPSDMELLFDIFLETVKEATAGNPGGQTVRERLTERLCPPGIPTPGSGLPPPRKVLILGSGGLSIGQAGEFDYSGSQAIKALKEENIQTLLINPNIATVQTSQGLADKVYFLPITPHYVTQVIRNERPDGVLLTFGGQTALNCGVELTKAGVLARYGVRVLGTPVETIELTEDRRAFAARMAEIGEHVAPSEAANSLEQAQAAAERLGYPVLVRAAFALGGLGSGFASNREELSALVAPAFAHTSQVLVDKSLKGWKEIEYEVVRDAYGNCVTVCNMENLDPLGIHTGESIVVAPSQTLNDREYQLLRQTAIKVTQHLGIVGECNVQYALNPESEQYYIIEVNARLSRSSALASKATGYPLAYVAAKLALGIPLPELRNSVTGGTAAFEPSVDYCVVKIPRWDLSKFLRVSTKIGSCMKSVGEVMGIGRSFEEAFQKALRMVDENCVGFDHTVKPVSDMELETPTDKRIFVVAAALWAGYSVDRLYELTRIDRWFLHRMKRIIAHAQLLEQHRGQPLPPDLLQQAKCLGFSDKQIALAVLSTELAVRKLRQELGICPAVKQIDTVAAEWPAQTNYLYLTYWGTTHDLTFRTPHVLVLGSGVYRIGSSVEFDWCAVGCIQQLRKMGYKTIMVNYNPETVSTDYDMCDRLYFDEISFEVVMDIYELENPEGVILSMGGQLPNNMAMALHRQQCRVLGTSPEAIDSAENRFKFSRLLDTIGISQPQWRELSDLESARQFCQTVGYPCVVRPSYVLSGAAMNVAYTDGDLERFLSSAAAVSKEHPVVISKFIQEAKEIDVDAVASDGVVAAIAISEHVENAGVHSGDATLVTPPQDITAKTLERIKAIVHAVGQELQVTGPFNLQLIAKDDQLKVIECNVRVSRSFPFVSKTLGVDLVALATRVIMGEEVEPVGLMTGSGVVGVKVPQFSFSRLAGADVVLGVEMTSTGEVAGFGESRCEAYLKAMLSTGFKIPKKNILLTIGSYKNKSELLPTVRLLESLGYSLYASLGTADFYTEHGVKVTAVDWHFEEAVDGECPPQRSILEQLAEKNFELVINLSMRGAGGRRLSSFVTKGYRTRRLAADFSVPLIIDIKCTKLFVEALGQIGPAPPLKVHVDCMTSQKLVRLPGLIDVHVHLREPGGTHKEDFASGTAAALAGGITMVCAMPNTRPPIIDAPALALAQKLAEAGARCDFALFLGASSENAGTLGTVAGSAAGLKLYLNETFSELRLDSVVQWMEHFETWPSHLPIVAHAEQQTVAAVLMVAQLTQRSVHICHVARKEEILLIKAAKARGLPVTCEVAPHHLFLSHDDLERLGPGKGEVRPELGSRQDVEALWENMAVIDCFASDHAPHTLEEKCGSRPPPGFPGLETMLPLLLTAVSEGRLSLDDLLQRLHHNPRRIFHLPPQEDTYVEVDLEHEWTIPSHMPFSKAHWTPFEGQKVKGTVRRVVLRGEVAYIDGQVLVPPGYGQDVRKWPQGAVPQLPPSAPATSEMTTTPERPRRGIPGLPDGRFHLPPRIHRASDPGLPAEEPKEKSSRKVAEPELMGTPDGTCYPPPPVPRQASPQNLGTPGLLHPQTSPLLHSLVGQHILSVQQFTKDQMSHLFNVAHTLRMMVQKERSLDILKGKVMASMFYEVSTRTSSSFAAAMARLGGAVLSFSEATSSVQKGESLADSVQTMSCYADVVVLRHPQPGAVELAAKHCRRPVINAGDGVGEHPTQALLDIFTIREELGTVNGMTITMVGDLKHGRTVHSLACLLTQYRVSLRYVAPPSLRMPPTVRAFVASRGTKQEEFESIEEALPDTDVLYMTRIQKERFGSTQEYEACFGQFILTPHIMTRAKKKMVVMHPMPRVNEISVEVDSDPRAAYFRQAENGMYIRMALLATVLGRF

[5] = molecular target: T2, cysteines in MDA-MB-231 and Ramos cells (Homo sapiens, UniProt Q9NQ88)
T2 sequence (Q9NQ88 1-270): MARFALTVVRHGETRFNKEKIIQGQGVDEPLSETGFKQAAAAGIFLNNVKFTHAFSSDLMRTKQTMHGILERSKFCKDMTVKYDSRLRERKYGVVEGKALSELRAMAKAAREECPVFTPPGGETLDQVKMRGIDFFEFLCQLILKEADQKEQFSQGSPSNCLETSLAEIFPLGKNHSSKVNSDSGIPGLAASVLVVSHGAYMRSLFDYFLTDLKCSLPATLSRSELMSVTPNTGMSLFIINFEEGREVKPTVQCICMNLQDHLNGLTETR

[6] = molecular target: cysteines in MDA-MB-231 and Ramos cells (Homo sapiens, UniProt O75362)
Sequence of cysteines in MDA-MB-231 and Ramos cells (Homo sapiens, UniProt O75362) (O75362 whole entry): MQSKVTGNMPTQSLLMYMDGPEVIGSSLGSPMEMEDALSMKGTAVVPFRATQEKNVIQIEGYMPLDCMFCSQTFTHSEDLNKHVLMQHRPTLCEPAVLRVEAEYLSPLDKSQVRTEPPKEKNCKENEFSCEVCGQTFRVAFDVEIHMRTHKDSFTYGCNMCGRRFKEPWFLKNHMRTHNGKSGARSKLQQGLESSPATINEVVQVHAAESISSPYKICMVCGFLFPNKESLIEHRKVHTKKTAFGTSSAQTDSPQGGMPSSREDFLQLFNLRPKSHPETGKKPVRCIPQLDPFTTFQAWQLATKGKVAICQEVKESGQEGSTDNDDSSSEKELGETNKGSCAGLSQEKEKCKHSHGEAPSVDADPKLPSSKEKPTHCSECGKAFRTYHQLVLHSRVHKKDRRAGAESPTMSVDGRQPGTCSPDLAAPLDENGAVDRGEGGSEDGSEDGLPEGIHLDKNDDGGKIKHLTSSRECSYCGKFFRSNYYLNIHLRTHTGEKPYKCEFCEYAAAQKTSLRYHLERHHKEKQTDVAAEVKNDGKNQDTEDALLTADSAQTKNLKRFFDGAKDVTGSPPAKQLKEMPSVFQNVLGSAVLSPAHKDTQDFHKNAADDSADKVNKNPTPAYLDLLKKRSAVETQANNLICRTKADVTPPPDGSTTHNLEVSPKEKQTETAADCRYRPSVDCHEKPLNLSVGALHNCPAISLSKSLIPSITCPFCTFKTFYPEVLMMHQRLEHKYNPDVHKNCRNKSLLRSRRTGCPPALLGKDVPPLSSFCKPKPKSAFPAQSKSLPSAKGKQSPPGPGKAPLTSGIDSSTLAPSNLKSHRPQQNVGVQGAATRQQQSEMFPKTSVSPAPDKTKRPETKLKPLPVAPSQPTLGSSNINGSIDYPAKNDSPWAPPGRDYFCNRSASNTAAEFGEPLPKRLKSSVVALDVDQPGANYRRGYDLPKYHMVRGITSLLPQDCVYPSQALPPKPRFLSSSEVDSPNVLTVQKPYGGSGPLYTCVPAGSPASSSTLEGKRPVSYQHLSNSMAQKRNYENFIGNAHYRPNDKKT

[7] = molecular target: T3, cysteines in MDA-MB-231 and Ramos cells (Homo sapiens, UniProt P55265); details: 200 μM, insitu, 231
T3 sequence (P55265 1-1226): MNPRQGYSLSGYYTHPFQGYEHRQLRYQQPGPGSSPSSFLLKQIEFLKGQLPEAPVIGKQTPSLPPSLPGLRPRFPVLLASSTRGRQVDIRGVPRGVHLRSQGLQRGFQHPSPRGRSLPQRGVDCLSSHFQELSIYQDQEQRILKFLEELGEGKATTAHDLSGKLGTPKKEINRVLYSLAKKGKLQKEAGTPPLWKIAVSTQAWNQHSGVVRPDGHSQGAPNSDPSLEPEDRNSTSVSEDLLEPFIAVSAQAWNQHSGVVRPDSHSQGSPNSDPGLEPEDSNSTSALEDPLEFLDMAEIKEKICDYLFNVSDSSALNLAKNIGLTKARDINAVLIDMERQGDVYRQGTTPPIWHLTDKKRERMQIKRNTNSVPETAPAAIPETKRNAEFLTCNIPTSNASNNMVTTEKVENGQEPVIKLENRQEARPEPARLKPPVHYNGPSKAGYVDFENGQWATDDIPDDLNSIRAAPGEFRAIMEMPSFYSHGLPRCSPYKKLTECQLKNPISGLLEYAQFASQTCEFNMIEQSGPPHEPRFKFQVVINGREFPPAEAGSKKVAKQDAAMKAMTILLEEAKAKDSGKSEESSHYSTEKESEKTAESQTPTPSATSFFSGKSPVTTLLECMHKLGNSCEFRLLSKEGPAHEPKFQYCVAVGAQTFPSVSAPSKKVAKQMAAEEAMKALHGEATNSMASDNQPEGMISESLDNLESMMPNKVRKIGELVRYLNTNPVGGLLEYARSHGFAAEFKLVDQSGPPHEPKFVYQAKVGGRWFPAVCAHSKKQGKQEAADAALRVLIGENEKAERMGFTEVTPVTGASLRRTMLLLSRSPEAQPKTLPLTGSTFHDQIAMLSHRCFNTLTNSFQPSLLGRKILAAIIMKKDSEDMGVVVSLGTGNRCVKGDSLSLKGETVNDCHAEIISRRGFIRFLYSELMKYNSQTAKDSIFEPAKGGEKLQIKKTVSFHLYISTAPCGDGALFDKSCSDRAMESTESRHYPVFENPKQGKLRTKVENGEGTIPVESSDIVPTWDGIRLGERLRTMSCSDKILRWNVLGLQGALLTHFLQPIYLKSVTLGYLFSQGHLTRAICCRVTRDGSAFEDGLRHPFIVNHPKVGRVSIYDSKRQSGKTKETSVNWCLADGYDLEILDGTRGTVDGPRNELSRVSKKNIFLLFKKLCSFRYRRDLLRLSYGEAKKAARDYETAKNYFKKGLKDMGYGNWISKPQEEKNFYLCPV

[8] = molecular target: T4, cysteines in MDA-MB-231 and Ramos cells (Homo sapiens, UniProt O43175); details: 200 μM, insitu
T4 sequence (O43175 1-533): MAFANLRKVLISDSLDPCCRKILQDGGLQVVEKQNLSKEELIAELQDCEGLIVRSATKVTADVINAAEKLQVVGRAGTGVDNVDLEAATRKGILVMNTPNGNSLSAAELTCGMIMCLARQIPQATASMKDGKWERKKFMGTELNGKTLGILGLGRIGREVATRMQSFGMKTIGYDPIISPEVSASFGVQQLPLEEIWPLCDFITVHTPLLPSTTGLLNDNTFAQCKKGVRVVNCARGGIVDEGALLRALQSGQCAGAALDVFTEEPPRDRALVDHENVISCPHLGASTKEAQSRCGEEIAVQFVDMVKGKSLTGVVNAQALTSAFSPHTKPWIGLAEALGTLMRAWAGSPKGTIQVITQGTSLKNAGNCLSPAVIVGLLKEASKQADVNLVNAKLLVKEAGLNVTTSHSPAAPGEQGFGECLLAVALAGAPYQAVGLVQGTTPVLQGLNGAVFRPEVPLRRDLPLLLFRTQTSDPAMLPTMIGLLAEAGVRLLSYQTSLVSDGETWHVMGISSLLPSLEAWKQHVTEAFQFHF

## COc1ccc(C2CC(c3cccs3)=NN2C(=O)CCl)cc1 (stereo not drawn) [compound 4]
[1]; 100 μM in situ 231
  isoTOP-ABPP reactivity Q96EY5_C231 FAM125A: 1.7
[2]; 100 μM in situ 231
  isoTOP-ABPP reactivity P51649_C340 ALDH5A1: 1.0
[3]; 100 μM in situ 231
  isoTOP-ABPP reactivity Q9BRJ7_C88 NUDT16L1: 20.0

## COc1cc2c(cc1OC)CN(C(=O)CCl)CC2 [compound 8]
[4]; 231
  isoTOP-ABPP reactivity P27708_C73 CAD: 20.0
[2]; 200 μM, insitu, 231
  isoTOP-ABPP reactivity P51649_C340 ALDH5A1: 2.7

## O=C(CCl)N1CCC(Cc2ccccc2)CC1 [compound 9]
[1]; 200 μM, insitu, 231
  isoTOP-ABPP reactivity Q96EY5_C231 FAM125A: 1.9
[5]; 200 μM, insitu, 231
  isoTOP-ABPP reactivity Q9NQ88_C114 TIGAR: 1.9
  isoTOP-ABPP reactivity Q9NQ88_C161 TIGAR: 2.6

## O=C(CCl)N1CCN(S(=O)(=O)c2ccccc2F)CC1 [compound 10]
[6]; 200 μM, insitu, 231
  isoTOP-ABPP ratio O75362_C286: 2.6
[5]; 200 μM, insitu, 231
  isoTOP-ABPP ratio Q9NQ88_C114: 2.1
  isoTOP-ABPP ratio Q9NQ88_C161: 4.6
[5]; 200 μM, insitu, ramos
  isoTOP-ABPP ratio Q9NQ88_C161: 2.1
[7]
  isoTOP-ABPP ratio, cysteine P55265_C1224: 10.7
[2]; 200 μM, insitu, 231
  isoTOP-ABPP ratio P51649_C340: 13.4
[2]; 200 μM, insitu, ramos
  isoTOP-ABPP ratio P51649_C340: 20.0
[3]; 200 μM, insitu, 231
  isoTOP-ABPP ratio, cysteine Q9BRJ7_C88: 20.0
[8]; ramos
  isoTOP-ABPP ratio, cysteine O43175_C369: 2.4

## Cn1cc(S(=O)(=O)N2CCOCC2)cc1C(=O)NC(=O)CCl [compound 11]
[6]; 100 μM in situ 231
  isoTOP-ABPP ratio O75362_C286: 1.0
[1]; 100 μM in situ 231
  isoTOP-ABPP ratio, cysteine Q96EY5_C231: 0.7
[5]; 100 μM in situ 231
  isoTOP-ABPP ratio Q9NQ88_C114: 0.8
  isoTOP-ABPP ratio Q9NQ88_C161: 0.9

## O=C(CCl)NC(=O)NC12CC3CC(CC(C3)C1)C2 [compound 12]
[6]; 200 μM, insitu, 231
  isoTOP-ABPP ratio O75362_C286: 20.0
[2]; 200 μM, insitu, 231
  isoTOP-ABPP ratio P51649_C340: 20.0

## O=C(CCl)NCCc1c[nH]c2ccccc12 [compound 13]
[6]; 200 μM, insitu, 231
  isoTOP-ABPP ratio O75362_C286: 1.1
[6]; 200 μM, insitu, ramos
  isoTOP-ABPP ratio O75362_C286: 20.0
[5]; 200 μM, insitu, 231
  isoTOP-ABPP ratio Q9NQ88_C114: 1.1
  isoTOP-ABPP ratio Q9NQ88_C161: 1.1
[5]; 200 μM, insitu, ramos
  isoTOP-ABPP ratio Q9NQ88_C114: 1.2
  isoTOP-ABPP ratio Q9NQ88_C161: 1.5
[7]
  isoTOP-ABPP ratio, cysteine P55265_C1224: 1.9
[4]; ramos
  isoTOP-ABPP ratio, cysteine P27708_C73: 5.0
[2]; 200 μM, insitu, 231
  isoTOP-ABPP ratio P51649_C340: 1.1
[2]; 200 μM, insitu, ramos
  isoTOP-ABPP ratio P51649_C340: 1.3
[8]; ramos
  isoTOP-ABPP ratio, cysteine O43175_C369: 2.0

## O=C(CCl)NC12CC3CC(CC(C3)C1)C2 [compound 21]
[6]; 200 μM, insitu, 231
  isoTOP-ABPP ratio O75362_C286: 1.1
[1]; 200 μM, insitu, 231
  isoTOP-ABPP ratio, cysteine Q96EY5_C231: 0.7
[5]; 200 μM, insitu, 231
  isoTOP-ABPP ratio Q9NQ88_C114: 0.9
  isoTOP-ABPP ratio Q9NQ88_C161: 1.0
[7]
  isoTOP-ABPP ratio, cysteine P55265_C1224: 2.2
[4]; 231
  isoTOP-ABPP ratio, cysteine P27708_C73: 0.6
[2]; 200 μM, insitu, 231
  isoTOP-ABPP ratio P51649_C340: 1.2
[8]; 231
  isoTOP-ABPP ratio, cysteine O43175_C369: 1.0
